# Experimental data reported in patent US20260258036A1, “INHIBITORS OF HUMAN ALDOSTERONE SYNTHASE (CYP11B2)” («TARGET MEDICALS» LIMITED LIABILITY COMPANY, priority 2022, published 2026).
# Target: T1, recombinant CYP11B2 (Homo sapiens, UniProt P19099)
# T1 sequence (P19099 25-503): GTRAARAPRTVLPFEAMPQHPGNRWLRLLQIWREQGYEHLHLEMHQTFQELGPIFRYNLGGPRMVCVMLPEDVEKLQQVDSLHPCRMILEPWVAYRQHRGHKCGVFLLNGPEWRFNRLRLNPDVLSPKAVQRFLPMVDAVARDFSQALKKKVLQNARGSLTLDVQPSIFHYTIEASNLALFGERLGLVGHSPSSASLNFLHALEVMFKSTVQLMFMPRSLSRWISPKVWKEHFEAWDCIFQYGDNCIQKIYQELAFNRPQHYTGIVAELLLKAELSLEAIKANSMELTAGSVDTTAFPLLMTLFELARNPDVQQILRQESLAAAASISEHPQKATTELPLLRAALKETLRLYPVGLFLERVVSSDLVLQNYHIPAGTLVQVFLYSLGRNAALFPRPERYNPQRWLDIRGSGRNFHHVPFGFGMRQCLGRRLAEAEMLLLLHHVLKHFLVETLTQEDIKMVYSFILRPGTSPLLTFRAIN
# Assay: Inhibition of CYP11B2 activity in a reconstructed enzyme system (HPLC with UV detector)
# Type: biochemical
# Conditions: compounds 1_xx; test compound final concentration ≤2 μM; corticosterone substrate; 30 minutes at 37° C.; read-out: Level of CYP11B2 activity inhibition
# Description: The authors of the present invention investigated the activity of the compounds according to the invention as inhibitors of CYP11 B2 when analyzed in a reconstructed system containing 0.5 μm recombinant CYP1 1B2, 0.3 μm human adrenodoxin reductase, 2 μm human adrenodoxin, 100 μm corticosterone as a control reaction to detect the formation of a product with using an HPLC system with a UV detector. The test compound is added to the reaction mixture to a final concentration of ≤2 μM. The concentrated protein mixture was diluted with buffer to a final volume of 0.5 ml, pre-incubated for 10 min at 37° C., followed by the addition of the substrate. Reactions are initiated by adding NADPH (nicotinamide adenine dinucleotide phosphate) to a final concentration of 0.25 mM with a regenerating system (glucose-6-phosphate and glucose-6-phosphate dehydrogenase) in 25 mM potassium phosphate buffer, pH 7.4, containing 0.1 mM DTT (dithiothreitol), 0.1% Tween-20.4 mM MgCl2 and incubated at 37° C. After 30 minutes of incubation, the reaction is stopped by adding 5 ml of dichloromethane. The organic phase is isolated by centrifugation, evaporation, dissolution in ethanol and transferred to a vial for HPLC studies. A C18 Luna 100 Å 250×4, 6 mm column was used on an Agilent Technologies 1200 series instrument (USA) with ethanol as the mobile phase.
# Activity (a) is calculated as the amount of product in nmol per minute per 1 nmol of CYP.
# where k is the correction factor (k=1 is used as the molar extinction coefficients of steroid substrates and products similar at a detection wavelength of 254 nm), As is the peak area of the substrate, cs is the concentration of the substrate, Ap is the peak area of the product, ce is the concentration of CYP (cytochrome P450), t is the reaction time.
# The level of inhibition of CYP11 B2 activity is expressed as a percentage, where 0% is defined as no inhibition in reactions without test compound and 100% is absolute inhibition by test compound.
row,inhibition at 2 µM,Compound
1,50 to 100%,"COc1c(C)cc(S(=O)(=O)n2ccc3c(-c4ccc(C)cn4)cncc32)cc1C [Compound 1_01, 1-(4-methoxy-3,5-dimethylphenyl)sulfonyl-4-(5-methyl-2-pyridyl)pyrrolo[2,3-c]pyridine]"
2,50 to 100%,"COc1c(C)cc(S(=O)(=O)n2ccc3c(-c4cnc(C)cn4)cncc32)cc1C [Compound 1_02, 1-((4-methoxy-3,5-dimethylphenyl)sulfonyl)-4-(5-methylpyrazin-2-yl)-1H-pyrrolo[2,3-c]pyridine]"
3,50 to 100%,"COc1c(C)cc(S(=O)(=O)n2ccc3c(-c4ncc(C)cn4)cncc32)cc1C [Compound 1_03, 1-((4-methoxy-3,5-dimethylphenyl)sulfonyl)-4-(5-methylpyrimidin-2-yl)-1H-pyrrolo[2,3-c]pyridine]"
4,50 to 100%,"COc1c(C)cc(S(=O)(=O)n2ccc3c(-c4ccc(C)nn4)cncc32)cc1C [Compound 1_04, 1-(4-methoxy-3,5-dimethylphenyl)sulfonyl-4-(6-methylpyridazin-3-yl)pyrrolo[2,3-c]pyridine]"
5,20 to 100%,"COc1c(C)cc(S(=O)(=O)n2ccc3c(-c4ccc(S(C)(=O)=O)cn4)cncc32)cc1C [Compound 1_05, 1-(4-methoxy-3,5-dimethylphenyl)sulfonyl-4-(5-methylsulfonyl-2-pyridyl)pyrrolo[2,3-c]pyridine]"
6,50 to 100%,"CC(C)Oc1c(F)cc(S(=O)(=O)n2ccc3c(-c4ccccn4)cncc32)cc1F [Compound 1_06, 1-((3,5-difluoro-4-isopropoxyphenyl)sulfonyl)-4-(pyridin-2-yl)-1H-pyrrolo[2,3-c]pyridine]"
7,50 to 100%,"O=S(=O)(c1cc(F)c(OCC2CC2)c(F)c1)n1ccc2c(-c3ccccn3)cncc21 [Compound 1_07, 1-((4-(cyclopropylmethoxy)-3,5-difluorophenyl)sulfonyl)-4-(pyridin-2-yl)-1H-pyrrolo[2,3-c]pyridine]"
8,50 to 100%,"O=S(=O)(c1cc(F)c(OCC(F)F)c(F)c1)n1ccc2c(-c3ccccn3)cncc21 [Compound 1_08, 1-((4-(2,2-difluoroethoxy)-3,5-difluorophenyl)sulfonyl)-4-(pyridin-2-yl)-1H-pyrrolo[2,3-c]pyridine]"
9,50 to 100%,"CN(C)c1c(F)cc(S(=O)(=O)n2ccc3c(-c4ccccn4)cncc32)cc1F [Compound 1_09, 2,6-difluoro-N,N-dimethyl-4-((4-(pyridin-2-yl)-1H-pyrrolo[2,3-c]pyridin-1-yl)sulfonyl)aniline]"
10,50 to 100%,"O=S(=O)(c1cc(F)c(N2CCOCC2)c(F)c1)n1ccc2c(-c3ccccn3)cncc21 [Compound 1_10, 4-(2,6-difluoro-4-((4-(pyridin-2-yl)-1H-pyrrolo[2,3-c]pyridin-1-yl)sulfonyl)phenyl)morpholine]"
11,50 to 100%,"Nc1c(F)cc(S(=O)(=O)n2ccc3c(-c4ccccn4)cncc32)cc1F [Compound 1_11, 2,6-difluoro-4-((4-(pyridin-2-yl)-1H-pyrrolo[2,3-c]pyridin-1-yl)sulfonyl)aniline]"
12,50 to 100%,"CN1CCN(c2c(F)cc(S(=O)(=O)n3ccc4c(-c5ccccn5)cncc43)cc2F)CC1 [Compound 1_12, 1-((3,5-difluoro-4-(4-methylpiperazin-1-yl)phenyl)sulfonyl)-4-(pyridin-2-yl)-1H-pyrrolo[2,3-c]pyridine]"
13,50 to 100%,"O=S(=O)(c1cc(F)c(NC2CC2)c(F)c1)n1ccc2c(-c3ccccn3)cncc21 [Compound 1_13, N-cyclopropyl-2,6-difluoro-4-((4-(pyridin-2-yl)-1H-pyrrolo[2,3-c]pyridin-1-yl)sulfonyl)aniline]"
14,50 to 100%,"CN(c1c(F)cc(S(=O)(=O)n2ccc3c(-c4ccccn4)cncc32)cc1F)C1CCC1 [Compound 1_14, N-cyclobutyl-2,6-difluoro-N-methyl-4-((4-(pyridin-2-yl)-1H-pyrrolo[2,3-c]pyridin-1-yl)sulfonyl)aniline]"
15,20 to 100%,"CN(C)c1c(F)cc(S(=O)(=O)N2CCc3c(-c4ccccn4)cncc32)cc1F [Compound 1_15, 2,6-difluoro-N,N-dimethyl-4-((4-(pyridin-2-yl)-2,3-dihydro-1H-pyrrolo[2,3-c]pyridin-1-yl)sulfonyl)aniline]"
16,50 to 100%,"O=S(=O)(c1cc(F)c(O)c(F)c1)N1CCc2c(-c3ccccn3)cncc21 [Compound 1_16, 2,6-difluoro-4-((4-(pyridin-2-yl)-2,3-dehydro-H-pyrrolo[2,3-c]pyridin-1-yl)sulfonyl)phenol]"
17,50 to 100%,"CN1CCN(c2c(F)cc(S(=O)(=O)N3CCc4c(-c5ccccn5)cncc43)cc2F)CC1 [Compound 1_17, 1-((3,5-difluoro-4-(4-methylpiperazin-1-yl)phenyl)sulfonyl)-4-(pyridin-2-yl)-2,3-dihydro-1H-pyrrolo[2,3-c]pyridine]"
18,50 to 100%,"COc1c(F)cc(S(=O)(=O)n2ccc3c(-c4ccccn4)cncc32)cc1F [Compound 1_18, 1-((3,5-difluoro-4-methoxyphenyl)sulfonyl)-4-(pyridin-2-yl)-1H-pyrrolo[2,3-c]pyridine]"
19,50 to 100%,"CC1CN(c2c(F)cc(S(=O)(=O)n3ccc4c(-c5ccccn5)cncc43)cc2F)C1 [Compound 1_19, 1-((3,5-difluoro-4-(3-methylazetidin-1-yl)phenyl)sulfonyl)-4-(pyridin-2-yl)-1H-pyrrolo[2,3-c]pyridine]"
20,50 to 100%,"Cc1csc(N(C)c2c(F)cc(S(=O)(=O)n3ccc4c(-c5ccccn5)cncc43)cc2F)n1 [Compound 1_20, N-(2,6-difluoro-4-((4-(pyridin-2-yl)-1H-pyrrolo[2,3-c]pyridin-1-yl)sulfonyl)phenyl)-N,4-dimethylthiazol-2-amine]"
21,50 to 100%,"CN1CCC(Nc2c(F)cc(S(=O)(=O)n3ccc4c(-c5ccccn5)cncc43)cc2F)CC1 [Compound 1_21, N-(2,6-difluoro-4-((4-(pyridin-2-yl)-1H-pyrrolo[2,3-c]pyridin-1-yl)sulfonyl)phenyl)-1-methylpiperidin-4-amine]"
22,50 to 100%,"CN(C)CCNc1c(F)cc(S(=O)(=O)n2ccc3c(-c4ccccn4)cncc32)cc1F [Compound 1_22, N1-(2,6-difluoro-4-((4-(pyridin-2-yl)-1H-pyrrolo[2,3-c]pyridin-1-yl)sulfonyl)phenyl)-N2,N2-dimethylethane-1,2-diamine]"
23,50 to 100%,"O=S(=O)(c1cc(F)c(N2CCSCC2)c(F)c1)n1ccc2c(-c3ccccn3)cncc21 [Compound 1_23, 4-(2,6-difluoro-4-((4-(pyridin-2-yl)-1H-pyrrolo[2,3-c]pyridin-1-yl)sulfonyl)phenyl)thiomorpholine]"
24,20 to 100%,"CN1CC2CN(c3c(F)cc(S(=O)(=O)n4ccc5c(-c6ccccn6)cncc54)cc3F)CC2C1 (stereo not drawn) [Compound 1_24, 1-((3,5-difluoro-4-(5-methylhexahydropyrrolo[3,4-c]pyrrol-2(1H)-yl)phenyl)sulfonyl)-4-(pyridin-2-yl)-1H-pyrrolo [2,3-s]pyridine]"
25,50 to 100%,"CN1CCC2CN(c3c(F)cc(S(=O)(=O)n4ccc5c(-c6ccccn6)cncc54)cc3F)CC2C1 (stereo not drawn) [Compound 1_25, 1-((3,5-difluoro-4-(5-methyloctahydro-2H-pyrrolo[3,4-c]pyridin-2-yl)phenyl)sulfonyl)-4-(pyridin-2-yl)-1H-pyrrolo[2,3-c]pyridine]"
26,50 to 100%,"O=S(=O)(c1cc(F)c(N2CCC3(CCNC3)C2)c(F)c1)n1ccc2c(-c3ccccn3)cncc21 (stereo not drawn) [Compound 1_26, 2-(2,6-difluoro-4-((4-(pyridin-2-yl)-1H-pyrrolo[2,3-c]pyridin-1-yl)sulfonyl)phenyl)-2,7-diazaspiro[4.4]nonane]"
27,50 to 100%,"CN1CCN(c2c(F)cc(S(=O)(=O)n3ccc4c(-c5nc(C#N)co5)cncc43)cc2F)CC1 [Compound 1_27, 2-(1-((3,5-difluoro-4-(4-methylpiperazin-1-yl)phenyl)sulfonyl)-1H-pyrrolo[2,3-c]pyridin-4-yl)oxazol-4-carbonitrile]"
